# Results from PubChem BioAssay (NCI).
#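 All cell lines were grown in 96-well plates and treated with compound for 48 hours. GI50 is the concentration that inhibits growth by half. TGI: total growth inhibition.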
# Tests used:
# Test in all cases: inhibition of tumour cell growth, NCI panel, 48 h
# UACC-62 melanoma = tested on: UACC-62 melanoma
# HOP-62 NSCLC = tested on: HOP-62 NSCLC
# NCI-H460 lung = tested on: NCI-H460 lung
# KM12 colon = tested on: KM12 colon
# HL-60(TB) leukemia = tested on: HL-60(TB) leukemia
# HCT-116 colon = tested on: HCT-116 colon
# ACHN renal = tested on: ACHN renal
# OVCAR-4 ovarian = tested on: OVCAR-4 ovarian
# MALME-3M melanoma = tested on: MALME-3M melanoma
# T-47D breast = tested on: T-47D breast
# NCI-H522 lung = tested on: NCI-H522 lung
# HCT-15 colon = tested on: HCT-15 colon
# SK-MEL-28 melanoma = tested on: SK-MEL-28 melanoma
# CAKI-1 renal = tested on: CAKI-1 renal
# OVCAR-3 ovarian = tested on: OVCAR-3 ovarian
# SF-268 CNS = tested on: SF-268 CNS
# OVCAR-5 ovarian = tested on: OVCAR-5 ovarian
# IGROV1 ovarian = tested on: IGROV1 ovarian
# UACC-257 melanoma = tested on: UACC-257 melanoma
# NCI-H23 lung = tested on: NCI-H23 lung
# TK-10 renal = tested on: TK-10 renal
# COLO 205 colon = tested on: COLO 205 colon
# SN12C renal = tested on: SN12C renal
# RXF 393 renal = tested on: RXF 393 renal
# SK-MEL-5 melanoma = tested on: SK-MEL-5 melanoma
# SNB-19 CNS = tested on: SNB-19 CNS
# HOP-92 NSCLC = tested on: HOP-92 NSCLC
# SF-539 CNS = tested on: SF-539 CNS
# SK-OV-3 ovarian = tested on: SK-OV-3 ovarian
smiles,measurement,setting,value
c1ccc(-c2nc([P+](c3ccccc3)(c3ccccc3)c3ccccc3)c(N3CCOCC3)o2)cc1,GI50,UACC-62 melanoma,0.589 µM
same,TGI,UACC-62 melanoma,2.94 µM
same,GI50,HOP-62 NSCLC,2.11 µM
same,TGI,HOP-62 NSCLC,10.6 µM
same,GI50,NCI-H460 lung,2.48 µM
same,TGI,NCI-H460 lung,12 µM
same,GI50,KM12 colon,0.385 µM
same,TGI,KM12 colon,2.04 µM
same,GI50,HL-60(TB) leukemia,0.322 µM
same,TGI,HL-60(TB) leukemia,1.6 µM
same,GI50,HCT-116 colon,1.04 µM
same,TGI,HCT-116 colon,10.7 µM
same,GI50,ACHN renal,3.07 µM
same,TGI,ACHN renal,12.7 µM
same,GI50,OVCAR-4 ovarian,0.424 µM
same,TGI,OVCAR-4 ovarian,6.27 µM
same,GI50,MALME-3M melanoma,0.529 µM
same,TGI,MALME-3M melanoma,6.13 µM
same,GI50,T-47D breast,0.358 µM
same,TGI,T-47D breast,6.81 µM
same,GI50,NCI-H522 lung,0.665 µM
same,TGI,NCI-H522 lung,5.43 µM
same,GI50,HCT-15 colon,9.31 µM
same,TGI,HCT-15 colon,58.8 µM
same,GI50,SK-MEL-28 melanoma,0.704 µM
same,TGI,SK-MEL-28 melanoma,13.1 µM
same,GI50,CAKI-1 renal,2.26 µM
same,TGI,CAKI-1 renal,6.47 µM
same,GI50,OVCAR-3 ovarian,0.474 µM
same,TGI,OVCAR-3 ovarian,4.28 µM
same,GI50,SF-268 CNS,0.844 µM
same,TGI,SF-268 CNS,11.1 µM
same,GI50,OVCAR-5 ovarian,2.45 µM
same,TGI,OVCAR-5 ovarian,12.8 µM
same,GI50,IGROV1 ovarian,0.557 µM
same,TGI,IGROV1 ovarian,8.35 µM
same,GI50,UACC-257 melanoma,0.406 µM
same,TGI,UACC-257 melanoma,3.48 µM
same,GI50,NCI-H23 lung,1.91 µM
same,TGI,NCI-H23 lung,7.24 µM
same,GI50,TK-10 renal,2.75 µM
same,TGI,TK-10 renal,15 µM
same,GI50,COLO 205 colon,0.477 µM
same,TGI,COLO 205 colon,2.07 µM
same,GI50,SN12C renal,0.934 µM
same,TGI,SN12C renal,9.15 µM
same,GI50,RXF 393 renal,1.59 µM
same,TGI,RXF 393 renal,7.42 µM
same,GI50,SK-MEL-5 melanoma,0.654 µM
same,TGI,SK-MEL-5 melanoma,1.96 µM
same,GI50,SNB-19 CNS,0.483 µM
same,TGI,SNB-19 CNS,15 µM
same,GI50,HOP-92 NSCLC,0.446 µM
same,TGI,HOP-92 NSCLC,3.2 µM
same,GI50,SF-539 CNS,2.19 µM
same,TGI,SF-539 CNS,12.2 µM
same,GI50,SK-OV-3 ovarian,1.63 µM
same,TGI,SK-OV-3 ovarian,6.34 µM
